Measurements taken from paper PMC10028264, “Synergistic antifungal interaction of N-(butylcarbamothioyl) benzamide and amphotericin B against Cryptococcus neoformans” (Frontiers in Microbiology, 2023).
pIC50: −log10 of the molar value. Converted amounts (≈) assume the structure as drawn.

How the values were obtained:
Cryptococcus neoformans = assay: Time-kill kinetics; assay type: cell-based; details: for difference in CFU counts compared to untreated control cells: BTU-01 MIC, 48 h
Description: For all assays, fungal cells were incubated in RPMI-MOPS (except when specified) supplemented with BTU-01 and AmB alone at MIC and MFC values or combined at the synergistic MIC values. Untreated fungal cells were considered as control. The time-kill assay ([CLSI, 1999]) was performed to analyze the rate of fungal killing in the presence of the compounds alone or combined. The fungal cells (1.0 × 10^3 CFU/mL) were added to the wells of U-bottom 96-wells microtiter plates containing RPMI-MOPS supplemented with BTU-01 and/or AmB and were incubated at 37°C. At determined time points (0, 24, and 48 h), 10 μL was removed from each well and 10-fold serial diluted in saline. A 10-μL aliquot of each dilution was inoculated onto SD agar and the CFU counts were carried out after incubation at 37°C for 48 h. Averaged data were plotted as log10 CFU/mL vs. time (h). The fungicidal effect of the compounds was defined as a 99.9% (3 log10) reduction in CFU/mL of the starting inoculum ([[…] et al., 1998]).

[1] = tested on: Cryptococcus neoformans biofilm; assay: Checkerboard assay on 72-h biofilms; assay type: cell-based; details: 72-h biofilm
Description: The antifungal effect of BTU-01 combined with AmB was evaluated using the checkerboard broth microdilution assay, according to [Scott et al. (1995)]. […] The Fractional Inhibitory Concentration (FIC) of each compound was determined by the ratio of the MIC obtained when the compounds were tested in combination and the MIC of the compounds tested individually. […] Untreated and treated biofilms were incubated at 37°C for further 24 h, and then washed with saline. The biofilm viability was analyzed by the MTT reduction assay as described above. […] The checkerboard assays were performed to analyze the effect of the combination with BTU-01 and AmB on 72-h biofilms. The results of the combination were interpreted using the FICI as described previously.

human erythrocytes = assay: Hemolysis assay; assay type: cell-based; details: estimated from the highest concentration tested; all cryptococcal strains
Description: The cytotoxicity of BTU-01 (1.95–1000.0 μg/mL) alone and combined with AmB (0.015–16.0 μg/mL) was evaluated on human erythrocytes. Blood from a healthy donor was collected according to the Declaration of Helsinki principles, defibrinated and an erythrocytes suspension (3%) was prepared in 5% glycosylated saline. A total of 100 μL of the erythrocytes suspension was incubated for 3 h at 37°C in wells of U-bottom 96-well polystyrene plates containing different concentrations of the compounds. Wells without the compounds and with 1% Triton X-100 were used as negative and positive hemolysis controls, respectively. The OD of the supernatant was determined at 550 nm with a microtiter plate reader (Synergy HT, BioTek, USA). The percentage of hemolysis was calculated by comparison with the positive control ([Izumi et al., 2012]).
(§1) The concentration of BTU-01 capable of causing 90% of hemolysis/cytotoxicity was used to calculate the selectivity index (SI) using the following equation: SI = CC90/MIC.

[2] = Cytotoxicity, MTT reduction assay; assay type: cell-based, human; details: human, HEp-2 CCL-23 cells, 24 h, MTT
Description: The effect of BTU-01 was analyzed on mammalian epithelial cell lines [HEp-2 CCL-23™ (ATCC), LLC-MK2, VERO CCL81 and HeLa (Merck, Brazil)], and the cytotoxicity was evaluated as described by [Longhi et al. (2016)] with modifications. Briefly, cells were cultured in Dulbecco’s Modified Eagle’s medium (DMEM) supplemented with 10% fetal bovine serum (Invitrogen, Brazil), 2 mM L-glutamine, 100 IU/mL penicillin, 100 μg/mL streptomycin, 1% tylosin in flat-bottomed 96-well microtiter plates, in 5% CO2 at 37°C for 48 h. Then, the medium was carefully removed and fresh medium containing twofold serially diluted BTU-01 (0.095–500.0 μg/mL) was added. The cells were incubated for further 24 h under the same conditions. Cell viability was analyzed by the MTT reduction assay according to the manufacturer’s recommendation. The concentration of the compound needed to inhibit the viable cells up to 50 and 90% by regression analysis corresponds to the 50% (CC50) and 90% (CC90) cytotoxic concentrations, respectively.
as §1

cryptococcal urease = biological target: T1, cryptococcal urease (Cryptococcus neoformans, UniProt O13465); assay: Urease activity inhibition test (indophenol method, crude protein extract); assay type: biochemical
T1 construct: 100 μL of crude protein extract; endogenous in cells; host or cells: Cryptococcus neoformans ATCC 34872, crude lysate (glass-bead lysis, supernatant)
T1 sequence (O13465 whole entry): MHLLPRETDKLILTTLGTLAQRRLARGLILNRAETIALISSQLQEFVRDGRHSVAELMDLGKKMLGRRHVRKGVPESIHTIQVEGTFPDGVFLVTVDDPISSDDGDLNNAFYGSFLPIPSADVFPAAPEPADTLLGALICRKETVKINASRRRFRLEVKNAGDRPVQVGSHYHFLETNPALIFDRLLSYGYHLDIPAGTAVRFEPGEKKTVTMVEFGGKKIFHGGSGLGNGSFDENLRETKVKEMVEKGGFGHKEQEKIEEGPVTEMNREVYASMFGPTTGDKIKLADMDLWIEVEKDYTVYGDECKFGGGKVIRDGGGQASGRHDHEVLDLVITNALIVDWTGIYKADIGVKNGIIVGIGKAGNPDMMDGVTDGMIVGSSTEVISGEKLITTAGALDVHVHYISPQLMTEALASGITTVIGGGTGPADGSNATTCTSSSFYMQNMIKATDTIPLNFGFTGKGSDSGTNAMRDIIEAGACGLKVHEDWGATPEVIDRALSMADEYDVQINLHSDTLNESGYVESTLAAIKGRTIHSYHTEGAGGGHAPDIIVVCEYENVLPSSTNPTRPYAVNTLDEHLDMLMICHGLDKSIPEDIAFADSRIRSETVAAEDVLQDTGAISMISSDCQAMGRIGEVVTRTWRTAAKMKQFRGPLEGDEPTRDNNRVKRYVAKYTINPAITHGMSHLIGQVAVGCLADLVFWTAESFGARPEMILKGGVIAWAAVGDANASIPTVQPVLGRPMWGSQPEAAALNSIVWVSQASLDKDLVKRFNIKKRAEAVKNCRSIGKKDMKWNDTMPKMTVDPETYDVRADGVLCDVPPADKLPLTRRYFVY
Description: Five colonies of C. neoformans were suspended in 100 μL SD broth and inoculated onto SD agar using a Drigalski spreader, and the culture was incubated at 37°C for 48 h. Afterward, all fungal growth was gently scraped and transferred to conical flasks containing 300 mL of SD broth and incubated with shaking (150 rpm) at 37°C for further 48 h. Cells were centrifuged (6,000 × g, 10 min) and washed three times with distilled water. The protein extraction was performed according to [Moller et al. (2016)] with modifications. Briefly, fungal cells were resuspended in 10 mL of chilled lysis buffer consisting of 100 μM Nα-tosyl-L-lysine chloromethyl ketone hydrochloride (TLCK), 1 mM EDTA, 10% glycerol and 0.15 M phosphate-buffered saline (PBS), pH 8.0. […] Then, the cell debris was removed by centrifugation (6,000 × g, 15 min, 4°C), and the protein content of the resulting supernatant was quantified using the […].
The inhibition of urease activity was evaluated by the indophenol method ([Weatherburn, 1967]). […] The reaction mixtures were incubated for further 10 min at 45°C, and the optical density (OD) was measured at 630 nm. Urease inhibition percentage (I%) was calculated according to the equation: I% = 100–(ODBTU–01/ODcontrol) × 100. […]

| SMILES | CFU counts (Cryptococcus neoformans; AmB MFC, after 24 h-incubation) | reduction in SMIC80 value in combination ([1]; 1172 strain) [fold] | reduction in SMIC80 value in combination ([1]; ATCC 34872) [fold] | difference in CFU counts compared to untreated control cells (Cryptococcus neoformans; 1172) [log10] | difference in CFU counts compared to untreated control cells (Cryptococcus neoformans; ATCC 34872) [log10] | reduction of CFU compared to untreated control (Cryptococcus neoformans; treatment with MFC, 1172 isolate) [log CFU] | CFU counts (Cryptococcus neoformans; treatment with MFC, ATCC 34872) | SI (human erythrocytes) | CC50 at 24 h [2] [µg/mL] | CC90 at 24 h [2] [µg/mL] | pIC50 (cryptococcal urease) |
| --- | --- | --- | --- | --- | --- | --- | --- | --- | --- | --- | --- |
| C[C@@H]1[C@H](O)[C@@H](C)/C=C/C=C/C=C/C=C/C=C/C=C/C=C/[C@H](O[C@@H]2O[C@H](C)[C@@H](O)[C@H](N)[C@@H]2O)C[C@@H]2O[C@](O)(C[C@@H](O)C[C@@H](O)[C@H](O)CC[C@@H](O)C[C@@H](O)CC(=O)O[C@H]1C)C[C@H](O)[C@H]2C(=O)O [Amphotericin B, amphotericin B] | no CFU counts were detected | 8 | 8 |  |  |  |  |  |  |  |  |
| CCCCNC(=S)NC(=O)c1ccccc1 [BTU-01, N-(butylcarbamothioyl) benzamide] |  | 128 | 16 | 3 | 2 | 5 | zero CFU counts | greater than 16 | 104 (≈ 441 µM) | 245 (≈ 1040 µM) | 3.65 |
